{"source": "paper PMC6934184", "about": "“Selective DNA-PKcs inhibition extends the therapeutic index of localized radiotherapy and chemotherapy” (The Journal of Clinical Investigation, 2019)", "molecular_target": "T1, RPS6KA1 (RSK1) (Homo sapiens, UniProt Q15418)", "T1 construct": "purchased Thermo Fisher Scientific (Life Technologies) SelectScreen", "T1 sequence (Q15418 whole entry)": "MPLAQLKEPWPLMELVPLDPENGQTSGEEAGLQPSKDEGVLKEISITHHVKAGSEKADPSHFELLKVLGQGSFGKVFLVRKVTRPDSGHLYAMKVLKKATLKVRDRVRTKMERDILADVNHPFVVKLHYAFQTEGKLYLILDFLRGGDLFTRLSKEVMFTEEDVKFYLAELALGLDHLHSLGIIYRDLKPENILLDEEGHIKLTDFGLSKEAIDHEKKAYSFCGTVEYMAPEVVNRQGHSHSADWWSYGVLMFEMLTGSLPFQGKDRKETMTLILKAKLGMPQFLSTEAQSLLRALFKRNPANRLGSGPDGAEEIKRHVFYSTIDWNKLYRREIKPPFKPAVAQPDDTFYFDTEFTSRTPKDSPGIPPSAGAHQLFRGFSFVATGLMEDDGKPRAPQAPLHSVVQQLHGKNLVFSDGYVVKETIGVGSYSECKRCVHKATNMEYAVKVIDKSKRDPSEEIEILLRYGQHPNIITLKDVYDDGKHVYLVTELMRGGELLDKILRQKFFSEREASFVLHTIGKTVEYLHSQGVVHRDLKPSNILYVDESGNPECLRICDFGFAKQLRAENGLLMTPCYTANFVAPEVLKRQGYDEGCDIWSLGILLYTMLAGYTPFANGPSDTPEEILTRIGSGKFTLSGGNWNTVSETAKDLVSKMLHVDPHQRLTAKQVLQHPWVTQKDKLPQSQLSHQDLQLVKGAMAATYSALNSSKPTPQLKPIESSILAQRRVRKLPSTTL", "assay": "SelectScreen Z'LYTE", "type": "biochemical", "method_in_brief": "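NU5455 was profiled across the SelectScreen Broad panel of kinase activity and binding assays. Z'LYTE reactions such as CSF1R ran at apparent Km ATP, while the Adapta CAMK1 assay used ATP listed as 10. Values are given as percent.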"}
{"smiles": "CN(C(=O)CN1CCOCC1)c1ccc2sc3c(-c4cccc5c(=O)cc(N6CC7CCC(C6)O7)oc45)cccc3c2c1", "note": "[NU5455]", "values": [{"measurement": "inhibition at 1 µM", "result": 5.7, "unit": "%"}]}
